Common to all, as to assay type: in vivo
In one series the test system is C57/BL6J mice. Kind of series: Suppression of blood glucose and insulin levels in high fat diet C57/BL6J mice.
The next series deals with ob/ob mice. Kind of series: Effectiveness in lowering blood glucose level in ob/ob mice.
Series [1] can be described thus: Adverse side effects check (weight, heart weight, liver weight, GPT/GOT) in high fat diet C57/BL6J mice.
Procedure: To check possible adverse side effects caused by the administration of the compound, the weight, heart weight and liver weight of each mouse were measured. GPT and GOT values were also calculated by employing a kit available in the market.
[2] abbreviates: high fat diet C57/BL6J mice, after 14 days oral administration.
Where [3] appears, read: high fat diet C57/BL6J mice, oral administration once a day for 14 days.
The mark [4] stands for this setting: high fat diet C57/BL6J mice, oral administration for 14 days.

Procedure for ob/ob mice: The resulting solution was intraperitoneally administered to the mice at a dose of 50 mg/kg, once a day for 5 days, or orally administered to the mice, at a dose of 100 mg/kg, twice a day for 14 days. Days 1, 3 and 5 were selected for intraperitoneal administration, and days 5, 10 and 14, for oral administration, to collect blood samples for measuring the blood glucose levels. […] Upon the completion of the oral administration for 14 days, the mice were fasted for 16 hrs to perform OGTT (Oral Glucose Tolerance Test) to determine the changes in insulin sensitivity induced by the oral administration. After administrating glucose to the mice at a dose of 2 g/kg orally, blood samples were collected at 0, 15, 30 60 and 120 minutes to measure blood glucose levels.

“1-hydroxy-6-(2-morpholine-4-yl-ethoxy)-1,3-diphenyl-1H-indene-2-carboxylic acid ethyl ester [Example 8]”: the “effect in lowering blood glucose and insulin levels” value in the series on C57/BL6J mice (administered orally or intraperitoneally, summary of Tables 6, 7 and 8) was “excellent effect in lowering both blood glucose and insulin levels”. Besides, in the series on C57/BL6J mice (setting [2]), the “% Inhibition, Oral Glucose Tolerance Test (Glucose)” value was determined as 23.8% and the “% Inhibition, Oral Glucose Tolerance Test (Insulin)” value was 56.2%. Besides, in the series with C57/BL6J mice (setting [3]), the “% Inhibition, Blood glucose concentration” value stood at 30.0% and the “% Inhibition, Blood insulin concentration” value is on record as 44.6%. Further, the “% Inhibition, Oral Glucose Tolerance Test (Blood Glucose)” value in the series on ob/ob mice (ob/ob mice after 14 days oral administration, fasted 16 hrs, glucose 2 g/kg orally, total blood glucose over 120 minutes) was 10.2%. For the same substance, the “% Inhibition, blood glucose, Intraperitoneal Administration (50 mg/kg/day)” value in the series on ob/ob mice (ob/ob mice, i.p. 50 mg/kg once a day for 5 days, relative to control) is 32.0%. Also, the “% Inhibition, blood glucose, Oral Administration (100 mg/kg/day)” value in the series on ob/ob mice (ob/ob mice, oral 100 mg/kg twice a day for 14 days, relative to control) worked out at 23.7%. Moreover, in series [1] (setting [4]), the GOT was 39 ± 7.8 karmen, the GPT was 29 ± 3.2/ karmen, the “Heart Weight” value was 0.123 ± 0.007 g and the “Liver Weight” value was 1.06 ± 0.17 g. In series [1] (setting [4]), this substance yielded a Weight of 35 ± 1.1 g. Besides, the “side effects (weight gain, hepatotoxicity, cardiotoxicity)” value in series [1] (summary of Tables 6, 7 and 8) is “no side effects such as weight gain, hepatotoxicity or cardiotoxicity”.

The values are drawn from patent publication US7741323B2, “Indene derivatives and process for the preparation thereof” (Korea Research Institute of Chemical Technology, priority 2004, dated 2010).
